The source of these data is PubChem BioAssay AID330 (DTP/NCI, 2004).

The subject of the assay is P388 leukemia ip, CD2F1 mice, survival T/C. The experiment in a line: NCI In Vivo Anticancer Drug Screen. Data for tumor model P388 Leukemia (intraperitoneal) in CD2F1 (CDF1) mice. The following applies: endpoint: median survival time, higher = longer survival. The gist of the method: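 Mice carrying the transplanted tumor received test compound or vehicle. Survival was recorded in each group, and the value is the treated-group measurement divided by that of the vehicle-treated control group.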

Where [1] appears, read: dose: 100.0 mg/kg/injection, schedule: Q01DX009 (ip), vehicle: saline with Tween-80.
The mark [2] stands for this setting: dose: 200.0 mg/kg/injection, schedule: Q01DX009 (ip), vehicle: saline with Tween-80.
[3] abbreviates: dose: 50.0 mg/kg/injection, schedule: Q01DX005 (ip), vehicle: saline with Tween-80.
Setting [4] is: dose: 100.0 mg/kg/injection, schedule: Q01DX005 (ip), vehicle: saline with Tween-80.
Where [5] appears, read: dose: 200.0 mg/kg/injection, schedule: Q01DX005 (ip), vehicle: saline with Tween-80.
Setting [6] is: dose: 50.0 mg/kg/injection, schedule: Q01DX009 (ip), vehicle: Klucel (hydroxypropylcellulose) (HPC).
The mark [7] stands for this setting: dose: 100.0 mg/kg/injection, schedule: Q01DX009 (ip), vehicle: Klucel (hydroxypropylcellulose) (HPC).
Where [8] appears, read: dose: 200.0 mg/kg/injection, schedule: Q01DX009 (ip), vehicle: Klucel (hydroxypropylcellulose) (HPC).
The mark [9] stands for this setting: dose: 50.0 mg/kg/injection, schedule: Q01DX009 (ip), vehicle: saline with Tween-80.

Where “and” joins values, the source holds several entries; their conditions need not be identical. Equal entries are not always repeated. Toxic doses and inconclusive results are not listed.

With `COC(=O)c1c(C)cc(OC)c(C/C=C(\C)CCCc2coc(C=C(C)C)c2)c1OC`, the T/C runs as follows: (dose: 4.5 mg/kg/injection, schedule: Q01DX005 (ip), vehicle: Klucel (hydroxypropylcellulose) (HPC)) 106 % of control; (dose: 9.0 mg/kg/injection, schedule: Q01DX005 (ip), vehicle: Klucel (hydroxypropylcellulose) (HPC)) 100 % of control; (dose: 18.0 mg/kg/injection, schedule: Q01DX005 (ip), vehicle: Klucel (hydroxypropylcellulose) (HPC)) 99 % of control; (dose: 36.0 mg/kg/injection, schedule: Q01DX005 (ip), vehicle: Klucel (hydroxypropylcellulose) (HPC)) 98 % of control; (dose: 50.0 mg/kg/injection, schedule: Q01DX005 (ip), vehicle: Klucel (hydroxypropylcellulose) (HPC)) 97 % of control; (dose: 72.0 mg/kg/injection, schedule: Q01DX005 (ip), vehicle: Klucel (hydroxypropylcellulose) (HPC)) 104 % of control. Further, the T/C runs as follows: (dose: 100.0 mg/kg/injection, schedule: Q01DX005 (ip), vehicle: Klucel (hydroxypropylcellulose) (HPC)) 98 % of control; (dose: 200.0 mg/kg/injection, schedule: Q01DX005 (ip), vehicle: Klucel (hydroxypropylcellulose) (HPC)) 99 % of control.

On to `CC(C)c1nc(-c2ccccc2)c(-c2ccccc2)[nH]1`, for which the T/C reads like this: under setting [1], 90 % of control; under setting [2], 90 % of control; (dose: 400.0 mg/kg/injection, schedule: Q01DX009 (ip), vehicle: saline with Tween-80) 95 % of control.

Turning to `CC1CC(C)C(C)C(CNCC2CC(C)CC(C)C2C)C1` (stereo not drawn), the T/C runs as follows: (dose: 12.5 mg/kg/injection, schedule: Q01DX005 (ip), vehicle: saline with Tween-80) 99 % of control; (dose: 25.0 mg/kg/injection, schedule: Q01DX005 (ip), vehicle: saline with Tween-80) 99 % of control; under setting [3], 102 % of control and 97 % of control; under setting [4], 102 % of control.

On to `C/C(=N\NC(=S)N1CCN(c2ccccn2)CC1)c1cccc2cccnc12`, for which the T/C is 103 % of control under setting [3], 106 % of control under setting [4] and 110 % of control under setting [5].

In the case of `Cc1ccc(NC(=O)c2cc3ccccc3c(N=Nc3ccccc3O)c2O)c(C)c1`, the T/C runs as follows: (dose: 60.0 mg/kg/injection, schedule: Q01DX005 (ip), vehicle: saline with Tween-80) 94 % of control; (dose: 120.0 mg/kg/injection, schedule: Q01DX005 (ip), vehicle: saline with Tween-80) 109 % of control; (dose: 240.0 mg/kg/injection, schedule: Q01DX005 (ip), vehicle: saline with Tween-80) 97 % of control.

With `N#Cc1cc(Cl)ccc1N=Cc1c(Cl)cccc1Cl`, the T/C reads like this: under setting [6], 100 % of control; under setting [7], 105 % of control; under setting [8], 100 % of control.

As to `CC(C)CC(NC(=O)C(CC(C)C)NC(=O)OCc1ccccc1)C(=O)O` (stereo not drawn), the T/C under setting [3] was 100 % of control, the T/C under setting [4] was 102 % of control and the T/C under setting [5] was 94 % of control.

Consider `CN1CCN(C)B1N=S=NB1N(C)CCN1C`, for which the T/C is 100 % of control and 105 % of control (dose: 12.5 mg/kg/injection, schedule: Q01DX005 (ip), vehicle: olive oil, sesame oil, peanut oil); 105 % of control and 96 % of control (dose: 25.0 mg/kg/injection, schedule: Q01DX005 (ip), vehicle: olive oil, sesame oil, peanut oil); 104 % of control and 97 % of control (dose: 50.0 mg/kg/injection, schedule: Q01DX005 (ip), vehicle: olive oil, sesame oil, peanut oil); 102 % of control and 103 % of control (dose: 100.0 mg/kg/injection, schedule: Q01DX005 (ip), vehicle: olive oil, sesame oil, peanut oil).

Turning to `CS(=O)(=O)c1ccccc1NN`, the T/C is, setting by setting: under setting [6], 111 % of control; under setting [7], 105 % of control; under setting [8], 100 % of control.

For `C=C(C)c1c2c(SC)ccc(SC)c2cc2c(SC)ccc(SC)c12`, the T/C is 96 % of control (dose: 100.0 mg/kg/injection, schedule: Q01DX001 (ip), vehicle: saline with Tween-80); 98 % of control (dose: 200.0 mg/kg/injection, schedule: Q01DX001 (ip), vehicle: saline with Tween-80); 95 % of control (dose: 400.0 mg/kg/injection, schedule: Q01DX001 (ip), vehicle: saline with Tween-80).

As to `CCC1(O)CC2CN(CCc3c([nH]c4ccccc34)C(C(=O)OC)(c3cc4c(cc3OC)N(C)C3C(O)(C(N)=O)C(O)C5(CC)C=CCN6CCC43C65)C2)C1` (stereo not drawn) (tested in a mixture with another compound), the T/C (dose: 0.06 mg/kg/injection, schedule: Q01DX009 (ip), vehicle: water) is 107 % of control; the T/C (dose: 0.11 mg/kg/injection, schedule: Q04DX003 (ip), vehicle: clinical formulation) was 158 % of control; the T/C (dose: 0.13 mg/kg/injection, schedule: Q04DX003 (ip), vehicle: saline) was 161 % of control; the T/C (dose: 0.18 mg/kg/injection, schedule: Q04DX003 (ip), vehicle: clinical formulation) is 161 % of control; the T/C (dose: 0.22 mg/kg/injection, schedule: Q01DX009 (ip), vehicle: water) was 123 % of control; the T/C (dose: 0.25 mg/kg/injection, schedule: Q04DX003 (ip), vehicle: water) is 158 % of control. For the same compound, the T/C is 180 % of control (dose: 0.3 mg/kg/injection, schedule: Q04DX003 (ip), vehicle: clinical formulation); 179 % of control (dose: 0.5 mg/kg/injection, schedule: Q04DX003 (ip), vehicle: clinical formulation); 203 % of control and 216 % of control (dose: 0.5 mg/kg/injection, schedule: Q04DX003 (ip), vehicle: saline); 163 % of control (dose: 0.5 mg/kg/injection, schedule: Q04DX003 (ip), vehicle: water); 97 % of control (dose: 0.6 mg/kg/injection, schedule: Q01DX009 (ip), vehicle: water); 177 % of control (dose: 0.67 mg/kg/injection, schedule: Q04DX003 (ip), vehicle: saline). Also, the T/C is 202 % of control (dose: 0.67 mg/kg/injection, schedule: Q04DX003 (ip), vehicle: water); 215 % of control (dose: 0.83 mg/kg/injection, schedule: Q04DX003 (ip), vehicle: clinical formulation); 100 % of control and 223 % of control (dose: 1.0 mg/kg/injection, schedule: Q01DX009 (ip), vehicle: water); 189 % of control and 191 % of control (dose: 1.0 mg/kg/injection, schedule: Q04DX003 (ip), vehicle: saline); 188 % of control and 200 % of control (dose: 1.0 mg/kg/injection, schedule: Q04DX003 (ip), vehicle: water); 170 % of control (dose: 1.08 mg/kg/injection, schedule: Q04DX003 (ip), vehicle: clinical formulation). The T/C was 222 % of control (dose: 1.3 mg/kg/injection, schedule: Q04DX003 (ip), vehicle: water); 184 % of control (dose: 1.5 mg/kg/injection, schedule: Q04DX003 (ip), vehicle: saline); 268 % of control (dose: 1.5 mg/kg/injection, schedule: Q04DX003 (ip), vehicle: water); 173 % of control (dose: 1.8 mg/kg/injection, schedule: Q04DX003 (ip), vehicle: clinical formulation); 186 % of control and 283 % of control (dose: 2.0 mg/kg/injection, schedule: Q04DX003 (ip), vehicle: water); 95 % of control (dose: 3.0 mg/kg/injection, schedule: Q04DX003 (ip), vehicle: clinical formulation). Besides, where the note is “dose: 3.0 mg/kg/injection, schedule: Q04DX003 (ip), vehicle: water”, the T/C is 123 % of control.

In the case of `ClCC1CSC(c2ccc3c(c2)OCO3)O1` (stereo not drawn), the T/C by setting is: under setting [9], 101 % of control and 96 % of control; under setting [1], 121 % of control and 91 % of control; under setting [2], 98 % of control.

For `CC1(C)OC(COCCO)C(COCCO)O1` (stereo not drawn), the T/C is, setting by setting: (dose: 100.0 mg/kg/injection, schedule: Q01DX001 (ip), vehicle: saline) 92 % of control; (dose: 200.0 mg/kg/injection, schedule: Q01DX001 (ip), vehicle: saline) 91 % of control; (dose: 400.0 mg/kg/injection, schedule: Q01DX001 (ip), vehicle: saline) 92 % of control.

Turning to `Cc1ccc(C(O)(CS(C)=O)c2ccco2)cc1` (stereo not drawn), the T/C by setting is: (dose: 12.5 mg/kg/injection, schedule: Q01DX009 (ip), vehicle: saline with Tween-80) 100 % of control; (dose: 25.0 mg/kg/injection, schedule: Q01DX009 (ip), vehicle: saline with Tween-80) 100 % of control; under setting [9], 100 % of control.

For the compound `C[P+]1(CCc2ccc(Cl)cc2)CC=CC1`, the T/C is, setting by setting: (dose: 25.0 mg/kg/injection, schedule: Q04DX002 (ip), vehicle: saline) 101 % of control; (dose: 50.0 mg/kg/injection, schedule: Q04DX002 (ip), vehicle: saline) 101 % of control.
